Patent US8709406B2, “Prevention and treatment of oxidative stress disorders by gluthathione and phase II detoxification enzymes” (Brassica Foundation for ChemoProtection Research, priority 2001, dated 2014)
Read-outs that look alike come from different tables or passages of the source.

Assays:
Format in all cases: cell-based, human
[1] = test system: ARPE-19 cells; experiment: Oxidant cytotoxicity (MTT viability, median effect analysis) and protection by 24 h sulforaphane pretreatment; settings: for EC50: Homo sapiens
Procedure: (§1) All experiments were performed in 96-well microliter plates. ARPE-19 and HaCaT cells were seeded at 10,000 cells per well and grown for 24 h before addition of sulforaphane, whereas L1210 cells (5,000 cells/well) were not incubated before sulforaphane treatment. Solutions of sulforaphane (5 mM) in dimethyl sulfoxide were diluted with the cognate culture medium to provide final inducer concentrations of 0.16-5.0 μM. The final DMSO concentrations were 0.1% by volume.
Tert-Butyl hydroperoxide (1 M) and 4-hydroxynonenal (25 mM) were dissolved in DMSO and diluted 1000-fold with serum-free medium before addition of serial dilutions to the microtiter plate wells. The final concentrations of DMSO were therefore less than 0.1% (by vol.). Menadione sodium bisulfite (0.5 M) and SIN-1 (0.5 M) were dissolved and added in PBS. ARPE-19 cells were exposed to menadione for 2 h and to tert-butyl hydroperoxide for 16 h, washed with PBS, and cell viability was determined by the MIT test. ARPE-19 cells were exposed to peroxynitrite for 2 h and 4-hydroxynonenal for 4 h, and the cells were then incubated in serum-free media for 22 and 20 h, respectively, washed with PBS, and cell viability was determined. The additional incubation periods were required for peroxynitrite and 4-hydroxynonenal to evoke maximal cytotoxicity.
(§2) Cell viability was determined by spectroscopic measurement of the reduction of MTT (Carmichael, J., DeGraff, W. G., Gazdar, A. F., Minna, J. D. & Mitchell, J. B. (1987) Cancer Res. 47, 936-942). The culture media were discarded after the designated incubation periods, the cells were washed three times with PBS by use of a microtiter plate washer (Ultrawash Plus, Dynex Technologies, Chantilly, Va.). Each well then received 150 μl of an MTT solution (0.5 mg/ml) in serum-free medium. The plates were incubated for 2 h at 37° C., the MTT solution was discarded, 100 μl of DMSO were added to each well, and the plates were shaken at 200 rpm on an orbital shaker for 5 min. The absorbances of the wells were determined at 555 nm with a microtiter plate reader (Spectra Max Plus, Molecular Devices, Sunnyvale, Calif.). The absorbance of reduced MIT was then compared at each inducer and oxidant concentration to that of untreated control cells that received only the vehicle in which sulforaphane (DMSO) and menadione (DMSO or PBS) were dissolved. In each experiment three identical 96-well plates were used and the means of the absorbance values, the standard deviations of these means, and their coefficients of variation were calculated.
(§3) Dose-effect analyses were performed according to the Median Effect Equation, by use of a computer program (Chou, T. C. & Hayball, M. (1996) CalcuSyn for Windows 3.1 and 95: multiple dose effect analyzer and manual for IBM-PC, Biosoft, Cambridge, U.K). The equation: fa/fu=[D/Dm]^m, where fa is the fraction of cells affected by the oxidant, fu is the fraction unaffected (i.e., 1-fa), D is the dose of oxidant required to produce the effect fa, Dm is the concentration of oxidant required to produce a 50% effect, i.e., when fa=fu, and the slope m is a measure of the sigmoidicity of the dose-response curve, and is therefore a measure of cooperativity. The results are analyzed by plotting log(fa/fu) with respect to log D of the oxidant. The computer program provides the slope (m) of the curves, and the goodness of fit (r^2) to linearity.

[2] = test system: Retina Pigment Epithelium Cell; experiment: Photooxidative damage by all-trans-retinal and 365 nm light, protection by sulforaphane (cell survival); settings: sulforaphane 0.00 μM
Procedure: There is accumulating evidence that chronic exposure to sunlight plays a role in some degenerative diseases, for instance, age-related macular degeneration (AMD). We have, therefore, carried out an experiment of protection of human RPE cells against photooxidative damage mediated by all-trans-retinal, which exists in human retina and is a critical component of the visual cycle.
as §2
To examine the protective effect of sulforaphane against photooxidative damage mediated by all-trans-retinal and light exposure, the cells were treated with 0-100 μM of all-trans-retinal for 2 hours and light exposure at 365 nm for 20 min after incubation with 0-5 μM of sulforaphane for 24 hours.

[3] = test system: HaCaT cells; experiment: tert-Butyl hydroperoxide cytotoxicity (MTT, median effect analysis) and protection by sulforaphane
Procedure: Mouse L1210 leukemia cells, a gift from Dr. Joseph G. Cory, East Carolina State University, Greenville, N.C., were grown in RPMI 1640 medium supplemented with 10% horse serum. All cultures were incubated in a humidified atmosphere of 5% CO2 at 37° C. Media and sera were obtained from Life Technologies (Rockville, Md.).
as §1, §2, §3

[4] = ARPE-19, mean over sulforaphane 0-2.5 μM

## CCCCCC(O)C=CC=O (centres unmarked) [4-hydroxynonenal, 4-Hydroxynon-2-enal, reference compound]
[1]; ARPE-19, 4-hydroxynonenal 4 h, sulforaphane 0.00 μM
  m (slope of median effect plot) for 4-hydroxynonenal: 2.85
[1]; [4]
  mean slope m for 4-hydroxynonenal: 2.66
[1]; ARPE-19, 4 h, ARPE-19, 4-hydroxynonenal 4 h, sulforaphane 0.00 μM, read-out: Dm (median effect concentration) of 4-hydroxynonenal
  EC50: 8.7 µM

## CC1=C(/C=C/C(C)=C/C=C/C(C)=C/C=O)C(C)(C)CCC1 [All-trans-Retinal, all-trans-retinal, reference compound]
[2]; 365 nm light, all-trans-retinal 12.5 μM
  Survival: 83.6%
[2]; 365 nm light, all-trans-retinal 25 μM
  Survival: 41.9%
[2]; 365 nm light, all-trans-retinal 50 μM
  Survival: 9.4%
[2]; 365 nm light, all-trans-retinal 100 μM
  Survival: 3.1%
[2]; in dark, all-trans-retinal 12.5 μM
  Survival: 96.3%
[2]; in dark, all-trans-retinal 25 μM
  Survival: 97.6%
[2]; in dark, all-trans-retinal 50 μM
  Survival: 96.8%
[2]; in dark, all-trans-retinal 100 μM
  Survival: 75.0%

## O=NOO [Peroxynitrite, reference compound]
[1]; [4]
  mean slope m for peroxynitrite: 6.29
[1]; ARPE-19, peroxynitrite (from SIN-1) 2 h, sulforaphane 0.00 μM
  m (slope of median effect plot) for peroxynitrite: 6.07
[1]; ARPE-19, 2 h, ARPE-19, peroxynitrite (from SIN-1) 2 h, sulforaphane 0.00 μM, read-out: Dm (median effect concentration) of peroxynitrite
  EC50: 1440 µM

## CC(C)(C)OO [tert-Butyl hydroperoxide, Tert-Butyl hydroperoxide, reference compound]
[1]; [4]
  mean slope m for tert-butyl hydroperoxide: 1.93
[1]; ARPE-19, tert-butyl hydroperoxide 16 h, sulforaphane 0.00 μM
  m (slope of median effect plot) for tert-butyl hydroperoxide: 2.52
[1]; ARPE-19, 16 h, read-out: Dm (median effect concentration) of tert-butyl hydroperoxide
  EC50: 95.8 µM
[3]; Homo sapiens, 8 h, read-out: Dm (median effect concentration) of tert-butyl hydroperoxide
  EC50: 63.5 µM
[3]; over the sulforaphane concentrations
  slopes of the median effect plots for tert-butyl hydroperoxide: 0.8-1.2
[3]; tert-butyl hydroperoxide 8 h, sulforaphane 0.00 μM
  m (slope of median effect plot) for tert-butyl hydroperoxide: 0.899
